From patent US9708305B2, “Substituted 1,2,3,4-tetrahydroisoquinoline derivatives for the treatment of hormone-dependent diseases” (UNIVERSITÉ LAVAL, priority 2013, dated 2017)
Values joined by “and” are separate entries in the source; they are usually repeats but may differ in a detail not shown here. Equal values may be shown once.

What was measured:
T-47D cells = assay: T-47D cell proliferation (estrogenicity / cytotoxicity), MTS; assay type: cell-based; conditions: Homo sapiens, T47D, control cells set to 100%, mean±SD
Procedure: The library of phenolic compounds described above was tested on estrogen-sensitive breast cancer T-47D cells.
In Table 1, cell proliferation of control cells is set to 100%. Results are expressed as mean±SD of one experiment in triplicate.
CellTitter 96® Aqueous One Solution Cell Proliferation Assay was used as an indirect colorimetric measurement of cell proliferation according to the manufacturer's instructions. Briefly, after the treatments, 20 μL of MTS solution was added to each well (100 μL) of the plates and incubated at 37° C. for 2 h (Saos-2) or 4 h (T-47D). The absorbance at 490 nm was then measured with a Thermo max microplate reader (Molecular Devices, Sunnyvale, Calif.). The control (culture media+DMSO) is set to 100% of cell proliferation.
The cells were plated in 96-well plates at a density of 3 000 cells/well and allowed to attach for 48 h. After this pre-incubation, the inhibitors and the reference compounds diluted in fresh culture media were added to the wells and replaced every 2 days for 7 days of treatment.

STS = target: T1, STS (Homo sapiens, UniProt P08842); assay: STS inhibition of libraries 1-EO to 4-EO, homogenate of STS transfected HEK-293 cells; assay type: biochemical; conditions: mean ± SEM, triplicate
T1 construct: expressed in transfected cells; host or cells: HEK-293 cells stably transfected with STS (G418 selection), obtained from Dr. Van Luu-The; used as freeze-thaw homogenate
T1 sequence (P08842 22-583): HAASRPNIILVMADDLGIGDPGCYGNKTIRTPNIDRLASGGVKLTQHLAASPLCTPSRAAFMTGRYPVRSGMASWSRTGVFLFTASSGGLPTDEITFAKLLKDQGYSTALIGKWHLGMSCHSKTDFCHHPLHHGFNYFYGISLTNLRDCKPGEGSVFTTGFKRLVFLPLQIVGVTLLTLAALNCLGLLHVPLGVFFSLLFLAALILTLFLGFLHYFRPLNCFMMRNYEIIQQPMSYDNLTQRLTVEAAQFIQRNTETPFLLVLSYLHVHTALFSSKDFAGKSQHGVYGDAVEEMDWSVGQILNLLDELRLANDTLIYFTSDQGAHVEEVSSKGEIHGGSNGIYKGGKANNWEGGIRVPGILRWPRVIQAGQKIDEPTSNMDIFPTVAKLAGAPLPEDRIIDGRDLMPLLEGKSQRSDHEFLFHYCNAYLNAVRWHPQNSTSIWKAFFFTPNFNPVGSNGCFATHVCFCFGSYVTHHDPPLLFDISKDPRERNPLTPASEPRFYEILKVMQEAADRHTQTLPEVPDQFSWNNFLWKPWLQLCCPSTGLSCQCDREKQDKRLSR
Procedure: The enzymatic assay was performed using homogenate of STS transfected HEK-293 cells as the source of enzyme activity. The transformation of [^3H]-E1S into [^3H]-E1 was measured using scintillation counting of labeled E1S and E1 in the aqueous and organic phases, respectively. Newly synthesized sulfamate compounds were tested at two concentrations (0.1 μM and 1 μM). Libraries 1-EO and 2-EO were synthesized using the p- and m-benzamide spacers as 1st level of molecular diversity and the same wide variety of secondary amines as 2nd level of diversity (Table 2), which were chosen in a somewhat random fashion while including a different pattern, format and heteroatom. […] Compounds 1-EO-07, 1-EO-09 and 1-EO-10 represent a starting point for optimization, as they show more than 36% of inhibition when tested at a concentration of 0.1 μM. These compounds have relatively hydrophobic substituents compared to the rest of the library members. […] The average log P value for the rest of the library, excluding these three compounds, is 1.93.
This enzymatic assay was carried out according to a procedure previously described for the transformation of substrate [^3H]-E1S (100 μM) into [^3H]-E1 by homogenated HEK-293 cells over-expressing the enzyme activity.^56,73

Row | SMILES | activity at 0.01 µM (T-47D cells) [%] | activity at 0.1 µM (T-47D cells) [%] | activity at 1 µM (T-47D cells) [%] | STS inhibition (%) (STS; 1 μM) | STS inhibition (%) (STS; 0.1 μM)
1 | O=C(c1ccc(CN(CCCn2ccnc2)Cc2ccco2)cc1)N1CCc2ccc(O)cc2C1 [Compound 24, [4-({(furan-2-ylmethyl)[3-(1H-imidazol-1-yl)propyl]amino}methyl)phenyl](7-hydroxy-3,4-dihydroisoquinolin-2(1H)-yl)methanone] | 94.9 ± 1.3 | 98.5 ± 4.5 | 115 ± 5.9 |  | 
2 | O=C(c1ccc(CN(Cc2ccc(Br)cc2)Cc2ccco2)cc1)N1CCc2ccc(O)cc2C1 [Compound 26, (4-{[(4-bromobenzyl)(furan-2-ylmethyl)amino]methyl}phenyl)(7-hydroxy-3,4-dihydroisoquinolin-2(1H)-yl)methanone] | 106.3 ± 0.6 | 109 ± 1.2 | 59.2 ± 3.1 |  | 
3 | Cc1ccc(CN(Cc2ccc(C(=O)N3CCc4ccc(O)cc4C3)cc2)Cc2ccccn2)s1 [Compound 28, (7-hydroxy-3,4-dihydroisoquinolin-2(1H)-yl)[4-({[(5-methylthiophen-2-yl)methyl](pyridin-2-ylmethyl)amino}methyl)phenyl]methanone] | 101 ± 3.8 | 105 ± 4.4 | 78.9 ± 6.8 |  | 
4 | O=C(c1ccc(CN(Cc2ccc(O)cc2)Cc2ccco2)cc1)N1CCc2ccc(O)cc2C1 [Compound 30, (4-{[(furan-2-ylmethyl)(4-hydroxybenzyl)amino]methyl}phenyl)(7-hydroxy-3,4-dihydroisoquinolin-2(1H)-yl)methanone] | 108 ± 5.5 | 138 ± 1.2 | 200 ± 4.9 |  | 
5 | O=C(c1ccc(CN(CCN2CCOCC2)Cc2ccco2)cc1)N1CCc2ccc(O)cc2C1 [Compound 27, [4-({(furan-2-ylmethyl)[2-(morpholin-4-yl)ethyl]amino}methyl)phenyl](7-hydroxy-3,4-dihydroisoquinolin-2(1H)-yl)methanone] | 108 ± 5.5 | 106 ± 1.5 | 119 ± 9.6 |  | 
6 | O=C(c1ccc(CN(Cc2ccco2)Cc2ccccc2OCCCN2CCCCC2)cc1)N1CCc2ccc(O)cc2C1 [Compound 21] | 96.8 ± 1.2 | 106 ± 5.6 | 0 |  | 
7 | O=C(c1ccc(CN(CCCn2ccnc2)Cc2ccccn2)cc1)N1CCc2ccc(O)cc2C1 [Compound 23, (7-hydroxy-3,4-dihydroisoquinolin-2(1H)-yl)[4-({[3-(1H-imidazol-1-yl)propyl](pyridin-2-ylmethyl)amino}methyl)phenyl]methanone] | 103 ± 2.2 | 113 ± 3.7 | 39.2 ± 2.9 |  | 
8 | O=C(c1ccc(CN(Cc2ccc(OCCCN3CCCCC3)cc2)Cc2ccco2)cc1)N1CCc2ccc(O)cc2C1 [Compound 22, (4-{[(furan-2-ylmethyl){4-[3-(piperidin-1-yl)propoxy]benzyl}amino]methyl}phenyl)(7-hydroxy-3,4-dihydroisoquinolin-2(1H)-yl)methanone] | 95.6 ± 1.8 | 120 ± 4.8 | 134 ± 3 |  | 
9 | O=C(c1ccc(CN(Cc2ccc(OCCCN3CCCCC3)cc2)Cc2ccccn2)cc1)N1CCc2ccc(O)cc2C1 [Compound 20, (7-hydroxy-3,4-dihydroisoquinolin-2(1H)-yl)(4-{[{4-[3-(piperidin-1-yl)propoxy]benzyl}(pyridin-2-ylmethyl)amino]methyl}phenyl)methanone] | 105.9 ± 1 | 104 ± 4.8 | 60.7 ± 6.4 |  | 
10 | CCCN(CCC)Cc1ccc(C(=O)N2CCc3ccc(OS(N)(=O)=O)cc3C2)cc1 [1-EO-10] |  |  |  | 84.7 ± 0.2 | 
11 | NS(=O)(=O)Oc1ccc2c(c1)CN(C(=O)c1ccc(CN3CCc4ccccc4C3)cc1)CC2 [3-EO-10] |  |  |  | 83.0 ± 11.9 | 56.0 ± 7.2%
12 | CCN(Cc1ccc(C(=O)N2CCc3ccc(OS(N)(=O)=O)cc3C2)cc1)Cc1cccnc1 [3-EO-15] |  |  |  | 85.2 ± 1.7 | 35.7 ± 4.3%
13 | O=C(c1ccc(CN(Cc2ccccn2)Cc2ccccc2OCCCN2CCCCC2)cc1)N1CCc2ccc(O)cc2C1 [Compound 19, (7-hydroxy-3,4-dihydroisoquinolin-2(1H)-yl)(4-{[{2-[3-(piperidin-1-yl)propoxy]benzyl}(pyridin-2-ylmethyl)amino]methyl}phenyl)methanone] | 103 ± 6.9 | 99.8 ± 4.2 | 37.1 ± 4.2 |  | 
14 | NS(=O)(=O)Oc1ccc2c(c1)CN(C(=O)c1cccc(CN(Cc3ccccc3)Cc3ccco3)c1)CC2 [4-EO-11] |  |  |  |  | 27.5 ± 0.9%
15 | CN(CCCN1CCCCC1)Cc1ccc(C(=O)N2CCc3ccc(OS(N)(=O)=O)cc3C2)cc1 [3-EO-07] |  |  |  | 40.7 ± 8.6 | 17.4 ± 12.3%
16 | CN(C)CCCN(Cc1ccccc1)Cc1ccc(C(=O)N2CCc3ccc(OS(N)(=O)=O)cc3C2)cc1 [3-EO-05] |  |  |  | 61.6 ± 4.9 | 16.2 ± 4.6%
17 | CCN(Cc1cccc(C(=O)N2CCc3ccc(OS(N)(=O)=O)cc3C2)c1)Cc1ccccn1 [4-EO-14] |  |  |  | 19.9 ± 12.6 | 6.5 ± 6.9%
18 | CCN(Cc1ccncc1)Cc1ccc(C(=O)N2CCc3ccc(OS(N)(=O)=O)cc3C2)cc1 [3-EO-16] |  |  |  | 86.6 ± 1.8 | 47.0 ± 1.8%
19 | CC(C)CCN(CCC(C)C)Cc1cccc(C(=O)N2CCc3ccc(OS(N)(=O)=O)cc3C2)c1 [4-EO-09] |  |  |  |  | 32.3 ± 2.9%
20 | NS(=O)(=O)Oc1ccc2c(c1)CN(C(=O)c1ccc(CN3CCOCC3)cc1)CC2 [1-EO-01] |  |  |  | 50.6 ± 1.2 | 10.9 ± 3.5%
21 | CCN(Cc1ccc(Br)cc1)Cc1ccc(C(=O)N2CCc3ccc(OS(N)(=O)=O)cc3C2)cc1 [3-EO-13] |  |  |  | 95.9 ± 0.6 | 78% and 78.2 ± 1.7%
22 | CCCN(Cc1ccccc1)Cc1cccc(C(=O)N2CCc3ccc(OS(N)(=O)=O)cc3C2)c1 [4-EO-01] |  |  |  | 67.4 ± 10.9 | 23.1 ± 7.5%
23 | CN(C)CCCN(Cc1ccccc1)Cc1cccc(C(=O)N2CCc3ccc(OS(N)(=O)=O)cc3C2)c1 [4-EO-05] |  |  |  | 26.0 ± 8.5 | 23.8 ± 4.1%
24 | CN(C)CCN(Cc1ccccc1)Cc1cccc(C(=O)N2CCc3ccc(OS(N)(=O)=O)cc3C2)c1 [4-EO-04] |  |  |  | 28.6 ± 2.2 | 0.0 ± 0.0%
25 | NS(=O)(=O)Oc1ccc2c(c1)CN(C(=O)c1cccc(CN(CCO)Cc3ccccc3)c1)CC2 [4-EO-02] |  |  |  | 32.4 ± 6.3 | 26.7 ± 7.2%
